Data: PubChem BioAssay AID2060611 (Molecular Pharmacology Branch, DTP, NCI, 2025)

Test system: 628569-122-R-J1-PDC complex spheroid viability
Assay: Anticancer human tumor 628569-122-R-J1-PDC patient-derived head and neck squamous carcinoma cell line growth inhibition [CLK]
Conditions: for IC50: curve of first compound; for viability, T/C: stronger effect = lower value
Summary of the method: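 Multi-cell-type spheroids combined patient-derived tumor cells with HUVEC endothelial cells and human mesenchymal stem cells. Paired agents were dosed in half-log steps down from about clinical Cmax, or from 10 microM where Cmax was unknown.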

[1] = second compound 0.0316 µM, first compound 0.0316 µM
[2] = second compound 0.0316 µM, first compound 0.1 µM
[3] = second compound 0.0316 µM, first compound 0.316 µM
[4] = second compound 0.0316 µM, first compound 1 µM
[5] = second compound 0.0316 µM, first compound 3.16 µM
[6] = second compound 0.0316 µM, first compound 10 µM
[7] = second compound 0.1 µM, first compound 0.0316 µM
[8] = second compound 0.1 µM, first compound 0.1 µM
[9] = second compound 0.1 µM, first compound 0.316 µM
[10] = second compound 0.1 µM, first compound 1 µM
[11] = second compound 0.1 µM, first compound 3.16 µM
[12] = second compound 0.1 µM, first compound 10 µM
[13] = second compound 0.316 µM, first compound 0.0316 µM
[14] = second compound 0.316 µM, first compound 0.1 µM
[15] = second compound 0.316 µM, first compound 0.316 µM
[16] = second compound 0.316 µM, first compound 1 µM
[17] = second compound 0.316 µM, first compound 3.16 µM
[18] = second compound 0.316 µM, first compound 10 µM
[19] = second compound 1 µM, first compound 0.0316 µM
[20] = second compound 1 µM, first compound 0.1 µM
[21] = second compound 1 µM, first compound 0.316 µM
[22] = second compound 1 µM, first compound 1 µM
[23] = second compound 1 µM, first compound 3.16 µM
[24] = second compound 1 µM, first compound 10 µM
[25] = second compound 3.16 µM, first compound 0.0316 µM
[26] = second compound 3.16 µM, first compound 0.1 µM
[27] = second compound 3.16 µM, first compound 0.316 µM
[28] = second compound 3.16 µM, first compound 1 µM
[29] = second compound 3.16 µM, first compound 3.16 µM
[30] = second compound 3.16 µM, first compound 10 µM
[31] = second compound 10 µM, first compound 0.0316 µM
[32] = second compound 10 µM, first compound 0.1 µM
[33] = second compound 10 µM, first compound 0.316 µM
[34] = second compound 10 µM, first compound 1 µM
[35] = second compound 10 µM, first compound 3.16 µM
[36] = second compound 10 µM, first compound 10 µM
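Also: spheroids exposed to agents for seven days before readout.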
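For viability, T/C in this document: 100% = DMSO vehicle control viability.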

Question: What does the source list for `CC(CO)NC(=O)c1cc(-c2ccc(Cl)cc2)nn(-c2cnn(C)c2)c1=O` (centres undefined) + CNC(=O)c1ccc(Nc2nc(OC3CCCC3)c3c(-c4ccc5nc(C)oc5c4)c[nH]c3n2)c(OC)c1?
Answer: IC50 (second compound 0.0316 µM): > 10000 nM; IC50 (second compound 0.1 µM): > 10000 nM; IC50 (second compound 0.316 µM): > 10000 nM; IC50 (second compound 1 µM): > 10000 nM; IC50 (second compound 3.16 µM): > 10000 nM; IC50 (second compound 10 µM): > 10000 nM; viability, T/C [1]: 135%; viability, T/C [2]: 176%; viability, T/C [3]: 214%; viability, T/C [4]: 189%; viability, T/C [5]: 192%; viability, T/C [6]: 169%; viability, T/C [7]: 91.4%; viability, T/C [8]: 87.9%; viability, T/C [9]: 100%; viability, T/C [10]: 125%; viability, T/C [11]: 138%; viability, T/C [12]: 124%; viability, T/C [13]: 66.2%; viability, T/C [14]: 82.6%; viability, T/C [15]: 100%; viability, T/C [16]: 104%; viability, T/C [17]: 150%; viability, T/C [18]: 97.4%; viability, T/C [19]: 64.7%; viability, T/C [20]: 68.7%; viability, T/C [21]: 79.4%; viability, T/C [22]: 89.6%; viability, T/C [23]: 84.9%; viability, T/C [24]: 81.6%; viability, T/C [25]: 70.8%; viability, T/C [26]: 66.2%; viability, T/C [27]: 81%; viability, T/C [28]: 77.6%; viability, T/C [29]: 90%; viability, T/C [30]: 82.4%; viability, T/C [31]: 70%; viability, T/C [32]: 59.4%; viability, T/C [33]: 76.1%; viability, T/C [34]: 93.1%; viability, T/C [35]: 90.8%; viability, T/C [36]: 79.3%

Question: Which IC50 (second compound 0.0316 µM) does the source give for `CC(Nc1ccc2c(c1)OCCn1cc(N3C(=O)OCC3C(F)F)nc1-2)C(N)=O` (centres undefined) + CN1CCN(c2cc(C(=O)Nc3cc4cc(-c5cnn(C)c5)ccc4cn3)ccn2)CC1 here?
Answer: Its IC50 is 432 nM.

Question: And the IC50 (second compound 0.1 µM)?
Answer: Its IC50 is 32 nM.

Question: And the IC50 (second compound 0.316 µM)?
Answer: The IC50 was less than 31.6 nM.

Question: What about the IC50 (second compound 1 µM) of the same compound?
Answer: The IC50 was less than 31.6 nM.

Question: What about the IC50 (second compound 3.16 µM) of the same compound?
Answer: The IC50 was less than 31.6 nM.

Question: And the IC50 (second compound 10 µM)?
Answer: Its IC50 is less than 31.6 nM.

Question: And the viability, T/C [1]?
Answer: Its viability, T/C is 76.2%.

Question: And the viability, T/C [2]?
Answer: The viability, T/C was 71.2%.

Question: What about the viability, T/C [3] of the same compound?
Answer: The viability, T/C was 50.8%.

Question: What about the viability, T/C [4] of the same compound?
Answer: Its viability, T/C is 41%.

Question: And the viability, T/C [5]?
Answer: Its viability, T/C is 28.9%.

Question: What about the viability, T/C [6] of the same compound?
Answer: Its viability, T/C is 23.2%.

Question: What about the viability, T/C [7] of the same compound?
Answer: The viability, T/C was 51.8%.

Question: And the viability, T/C [8]?
Answer: The viability, T/C was 44%.

Question: And the viability, T/C [9]?
Answer: Its viability, T/C is 36.4%.

Question: What about the viability, T/C [10] of the same compound?
Answer: Its viability, T/C is 41.6%.

Question: What about the viability, T/C [11] of the same compound?
Answer: Its viability, T/C is 23.2%.

Question: And the viability, T/C [12]?
Answer: The viability, T/C was 17.8%.

Question: And the viability, T/C [13]?
Answer: Its viability, T/C is 26.9%.

Question: And the viability, T/C [14]?
Answer: Its viability, T/C is 20.5%.

Question: And the viability, T/C [15]?
Answer: The viability, T/C was 13.6%.

Question: And the viability, T/C [16]?
Answer: The viability, T/C was 13.5%.

Question: And the viability, T/C [17]?
Answer: The viability, T/C was 8.04%.

Question: What about the viability, T/C [18] of the same compound?
Answer: The viability, T/C was 5.9%.

Question: What about the viability, T/C [19] of the same compound?
Answer: The viability, T/C was 7.59%.

Question: And the viability, T/C [20]?
Answer: The viability, T/C was 8.7%.

Question: And the viability, T/C [21]?
Answer: The viability, T/C was 6.98%.

Question: What about the viability, T/C [22] of the same compound?
Answer: Its viability, T/C is 8.35%.

Question: And the viability, T/C [23]?
Answer: The viability, T/C was 6.35%.

Question: What about the viability, T/C [24] of the same compound?
Answer: Its viability, T/C is 5.58%.

Question: What about the viability, T/C [25] of the same compound?
Answer: The viability, T/C was 7.77%.

Question: And the viability, T/C [26]?
Answer: The viability, T/C was 7.38%.

Question: And the viability, T/C [27]?
Answer: The viability, T/C was 6.16%.

Question: What about the viability, T/C [28] of the same compound?
Answer: Its viability, T/C is 6.78%.

Question: And the viability, T/C [29]?
Answer: The viability, T/C was 7.18%.

Question: And the viability, T/C [30]?
Answer: The viability, T/C was 6.1%.

Question: And the viability, T/C [31]?
Answer: The viability, T/C was 6.06%.

Question: And the viability, T/C [32]?
Answer: Its viability, T/C is 4.09%.

Question: What about the viability, T/C [33] of the same compound?
Answer: The viability, T/C was 2.84%.

Question: What about the viability, T/C [34] of the same compound?
Answer: The viability, T/C was 6.87%.

Question: What about the viability, T/C [35] of the same compound?
Answer: Its viability, T/C is 3.27%.

Question: And the viability, T/C [36]?
Answer: The viability, T/C was 2.51%.
